± gives the standard deviation of the averaged measurements.
Experiments:
Assay in all cases: level (log10 ratio to DMSO vehicle control); higher = higher biomarker level / cell amount than vehicle control
Conditions in all cases: in DMSO
[1] = compound: C=CC(F)(F)C(F)(F)C(F)(F)C(F)(F)C(F)(F)C(F)(F)C(F)(F)C(F)(F)C=C [1,8-Divinylperfluorooctane]
Method: (§1)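 BioMAP Diversity Plus panel of 12 human primary cell co-culture systems (3C, 4H, LPS, SAg, BT, BF4T, BE3C, CASM3C, HDF3CGF, KF3CT, MyoF, Mphg). Compounds were added 1 h before stimulation and left for 24 h (MyoF 48 h; BT 72 h for soluble read-outs or 6 d for IgG). Biomarkers were read by ELISA, cytotoxicity by SRB, PBMC viability and proliferation by Alamar Blue. Each well value was divided by the mean of 8 DMSO control wells on the same plate and log10 transformed; duplicate blinded samples were tested at 4 concentrations.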

[2] = compound: COC(=O)CCC(F)(F)C(F)(F)C(F)(F)C(F)(F)F [Methyl 2H,2H,3H,3H-perfluoroheptanoate]
Method: as §1

[3] = compound: FC(F)(F)C(F)(F)C(F)(F)C(F)(F)C(F)(F)C(F)(F)C(F)(F)C(F)(F)CCS [2-(Perfluorooctyl)ethanthiol]
Method: as §1

[4] = compound: O=C(O)C(F)(F)C(F)(F)C(F)(F)C(F)(F)C(F)(F)C(F)(F)F [Perfluoroheptanoic acid]
Method: as §1

[5] = compound: O=C(O)C(F)(F)C(F)(F)C(F)(F)F [Perfluorobutanoic acid]
Method: as §1

[6] = compound: O=C(O)C(F)(F)OC(F)(F)C(F)(F)OC(F)(F)C(=O)O [Perfluoro-3,6-dioxaoctane-1,8-dioic acid]
Method: as §1

[7] = compound: O=C(O)C(F)(F)OC(F)(F)C(F)(F)OC(F)(F)F [Perfluoro-3,6-dioxaheptanoic acid]
Method: as §1

Test System	level (log10) ([1]; 6700 nM)	level (log10) ([1]; 20000 nM)	level (log10) ([2]; 6700 nM)	level (log10) ([2]; 20000 nM)	level (log10) ([2]; 60000 nM)	level (log10) ([3]; 6700 nM)	level (log10) ([3]; 20000 nM)	level (log10) ([4]; 6700 nM)	level (log10) ([4]; 20000 nM)	level (log10) ([4]; 60000 nM)	level (log10) ([5]; 6700 nM)	level (log10) ([5]; 20000 nM)	level (log10) ([5]; 60000 nM)	level (log10) ([6]; 6700 nM)	level (log10) ([6]; 20000 nM)	level (log10) ([6]; 60000 nM)	level (log10) ([7]; 6700 nM)	level (log10) ([7]; 20000 nM)	level (log10) ([7]; 60000 nM)
BF4T:CCL2/MCP-1	-0.007 ± 0.0028	0.014 ± 0.047	-0.0105 ± 0.019	-0.0245 ± 0.039	-0.002 ± 0.0085	-0.0265 ± 0.029	-0.031 ± 0.03	0.0155 ± 0.056	0.019 ± 0.067	0.0365 ± 0.12	0.004 ± 0.038	0.017 ± 0.0057	0.006 ± 0.0071	0.018 ± 0.027	0.0135 ± 0.053	0.0265 ± 0.043	-0.0235 ± 0.0021	0.002 ± 0.0071	-0.0255 ± 0.023
SAg:CD69	-0.042 ± 0.021	-0.012 ± 0.035	-0.0375 ± 0.035	-0.0225 ± 0.019	-0.0085 ± 0.05	-0.0165 ± 0.0092	-0.035 ± 0.0014	-0.006 ± 0.0014	-0.0145 ± 0.0021	-0.008 ± 0.017	-0.01 ± 0.014	-0.0095 ± 0.03	0.018 ± 0.047	0.0045 ± 0.0021	0.007 ± 0.0057	0 ± 0.0014	-0.024 ± 0.0085	-0.013 ± 0.014	-0.029 ± 0.0028
BF4T:SRB	-0.0045 ± 0.0021	-0.0025 ± 0.00071	-0.002 ± 0.0028	0.003 ± 0.0028	-0.003 ± 0.0014	-0.01 ± 0.013	-0.016 ± 0.0014	-0.0085 ± 0.00071	-0.0115 ± 0.00071	-0.0035 ± 0.018	-0.012 ± 0.0071	-0.0055 ± 0.00071	0 ± 0.0042	-0.0115 ± 0.00071	-0.014 ± 0.0014	0.003 ± 0.018	-0.007 ± 0.0057	-0.0035 ± 0.0021	-0.003 ± 0.0028
BF4T:tPA	-0.0015 ± 0.018	0.0125 ± 0.015	-0.019 ± 0.0085	-0.023 ± 0.0014	-0.0145 ± 0.013	0.006 ± 0.034	-0.0195 ± 0.022	-0.0125 ± 0.005	-0.0145 ± 0.015	0.004 ± 0.073	0.0025 ± 0.005	0.0105 ± 0.011	0.011 ± 0.013	-0.003 ± 0.0028	-0.024 ± 0.018	0.0155 ± 0.059	-0.0365 ± 0.05	-0.0115 ± 0.063	-0.041 ± 0.068
BT:sTNF-alpha	0.016 ± 0.13	0.102 ± 0.081	0.0125 ± 0.042	-0.105 ± 0.055	0.0165 ± 0.12	0.16 ± 0.015	0.065 ± 0.035	-0.0045 ± 0.11	-0.0405 ± 0.05	-0.064 ± 0.17	0.019 ± 0.093	0.0875 ± 0.069	0.0305 ± 0.023	-0.0245 ± 0.043	-0.139 ± 0.035	-0.019 ± 0.2	0.0935 ± 0.056	0.0375 ± 0.17	0.0755 ± 0.036
SAg:CD38	-0.009 ± 0.016	-0.0055 ± 0.0092	-0.018 ± 0.017	-0.0015 ± 0.018	-0.009 ± 0.0028	-0.036 ± 0.057	-0.0245 ± 0.042	-0.02 ± 0.0042	-0.001 ± 0.0057	-0.0225 ± 0.03	-0.005	-0.013 ± 0.0085	-0.012 ± 0.0099	-0.001	0.0015 ± 0.0021	0.0055 ± 0.0021	-0.0055 ± 0.052	-0.003 ± 0.047	-0.014 ± 0.024
LPS:CD69	-0.0135 ± 0.011	-0.008 ± 0.014	-0.019 ± 0.047	0.0115 ± 0.042	-0.01 ± 0.052	0.019 ± 0.024	0.0125 ± 0.043	-0.0095 ± 0.0035	-0.025	-0.057 ± 0.013	-0.0005 ± 0.081	0.0145 ± 0.088	0.002 ± 0.075	-0.004 ± 0.0071	0.003 ± 0.017	0.0165 ± 0.022	-0.0125 ± 0.0064	-0.044 ± 0.035	-0.0165 ± 0.019

— the supplement of paper PMC10331698
